Patent US10041937B2, “Macrophage identification agent, and identification method, sorting method, evaluation method, screening method and kit using the macrophage identifier agent” (CANON KABUSHIKI KAISHA, priority 2013, dated 2018)

Tests used:
[1] = system: M1 macrophages and M2 macrophages differentiated from mouse bone marrow cells; experiment: Subtype identification by staining and flow cytometry of M1 and M2 macrophages differentiated from mouse bone marrow cells; type: cell-based, Balb/c mouse; settings: for subtype more strongly stained: two compounds used in combination, each 1 μM
Outline: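 Balb/c mouse bone marrow cells were differentiated to macrophages with 50 ng/mL M-CSF over two 3–4-day periods, then polarized for 3 days to M1 (interferon-γ plus polyliposaccharide) or M2 (IL-4). Live cells (aqua dye-negative) were analysed by flow cytometry; resolution R = |FM1−FM2|/(WM1+WM2) from histogram peak positions and widths indexed subtype discrimination.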

[2] = system: mixture of the M1 macrophages and the M2 macrophages; experiment: Sorting of subtypes from a mixture of M1 and M2 macrophages with an FACS apparatus; type: cell-based, mouse; settings: compound 1 μM; for sorting of identified M1 and M2 macrophages: FACS apparatus; for subtype more strongly stained: mixed M1 and M2 macrophages
[3] = system: M1 macrophages and M2 macrophages differentiated from THP-1 cells; experiment: Identification of macrophage subtypes differentiated from human cell line THP-1; type: cell-based; settings: for subtype more strongly stained: THP-1 derived M1 and M2; for Resolution ratio R / Evaluation of macrophage subtype identification: M1 vs M2 macrophages differentiated from THP-1 cells; for Resolution ratio R: channel listed per compound (Table 6); for Evaluation of macrophage subtype identification: class based on resolution R (Table 6); for Peak position of M1 macrophage: THP-1-derived M1 macrophages; for Peak position of M1 macrophage / Peak position of M2 macrophage: fluorescence intensity peak by flow cytometry in the channel listed per compound (Table 6); for Peak position of M2 macrophage: THP-1-derived M2 macrophages; for Selectivity: subtype strongly stained, THP-1-derived macrophages (Table 6)
Protocol: The fluorescent signals derived from the compounds (3), (4), (6), (7), (9), (11) to (13), (15), (17), (19) to (26), (28), (30) to (33), (35), (36), (38), (42) to (45), (48) to (62), (65), (67), (74) to (76), (82), (83) and (85) and the comparative compounds (1) and (2) were measured in channels suitable to the respective compounds. Histograms were prepared by plotting fluorescence intensities obtained in the respective channels on the abscissa and plotting the numbers of cells at each fluorescence intensity on the ordinate. A difference between a fluorescence intensity (FM1) at a peak top of the histogram of the M1 macrophage and a fluorescence intensity (FM2) at a peak top of the histogram of the M2 macrophage is divided by a sum of a peak width (WM1) of the histogram of the M1 macrophage and a peak width (WM2) of the histogram of the M2 macrophage, so as to obtain a resolution R, which was used as an index of the identification ability for a subtype (see the following expression (1)). Resolution R=|FM1−FM2|/(WM1+WM2) Expression (1)
Based on the thus obtained values of the resolution R, the identification abilities for the subtypes of the compounds (3), (4), (6), (7), (9), (11) to (13), (15), (17), (19) to (26), (28), (30) to (33), (35), (36), (38), (42) to (45), (48) to (62), (65), (67), (74) to (76), (82), (83) and (85) and the comparative compounds (1) and (2) were evaluated as any of A to C according to the following criteria, and if the resolution R was 0.15 or more, the compound was determined to be good in the subtype identification.
The subtypes were identified by using the compound (1) in the same manner as in Example 1 except that the macrophage subtypes differentiated from the mouse bone marrow cells were changed to macrophage subtypes differentiated from a cell line established from human acute monocytic leukemia.
The culture of subtypes was performed with reference to NPL 10. Specifically, THP-1 cells purchased from JCRB Cell Bank of National Institute of Biomedical Innovation, that is, a cell line established from human acute monocytic leukemia, were subcultured several times, and the resultant cells were dispersed to a concentration of 5.0×10^5/mL in an RPMI1640 containing 10% FBS and 1% P/S, and 5.0×10^6 cells were seeded in a 100 mm dish. The monocytes were differentiated into macrophages by incubating the resultant in the presence of 5% CO2 at 37° C. for 2 days with 500 ng of PMA added thereto. After exchanging the medium, by adding 200 ng of interferon-γ and 1 μg of polyliposaccharide (both manufactured by Pepro Tech) to the medium, the cells were differentiated to the subtype M1. Besides, by adding 200 ng of IL-4 and IL-13, the cells were differentiated to the subtype M2. After incubation performed in the presence of 5% CO2 at 37° C. for 24 hours, the resultant was rinsed with PBS, and PBS containing 0.25% trypsin and 1 mM EDTA (ethylenediaminetetraacetic acid) was used for collecting, from the dish, the macrophages having been differentiated to the subtypes M1 and M2.
Specifically, fluorescent signals derived from the compounds (1) (3) (4) (12) and (15) were measured by using the channels which are appropriate for each of the compounds and the identification abilities for the subtypes of the compounds were evaluated based on the values of the resolution R.

[4] = system: M1 macrophages and M2 macrophages; experiment: Analysis of export inhibition of the identification agent by a test substance (FTC, MK-571, DIDS); type: cell-based, mouse
Protocol: Besides, Fumitremorgin C (manufactured by Sigma-Aldrich, hereinafter referred to as FTC) was added thereto, as a substance for inhibiting export of the compound (1) having been imported into cells, to a concentration of 10 μM, and the resultant was incubated at 37° C. for 30 minutes. Thereafter, the tube was centrifuged at 180 G for 10 minutes to remove the supernatant, and then, 1 mL of a HBSS buffer containing the FTC in a concentration of 10 μM was added thereto to suspend the cells, and the resultant was further incubated at 37° C. for 30 minutes.
Furthermore, each tube was centrifuged at 180 G for 10 minutes to remove the supernatant, the cells were suspended by adding the dye aqua for identifying dead cells thereto, and the resultant was incubated at 4° C. for 10 minutes. Thereafter, the tube was centrifuged at 180 G for 10 minutes to remove the supernatant, and then, the cells were suspended in a FACS buffer and analyzed by using a FACSCanto (trademark) II flow cytometry apparatus manufactured by BD.
The analysis was performed on a cell population showing a low signal for the aqua, so as to analyze a cell population from which dead cells were eliminated.
The analysis was performed in the same manner as in Example 57 except that the FTC was not added.
Thereafter, the tube was centrifuged at 180 G for 10 minutes to remove the supernatant, and then, 1 mL of a HBSS buffer containing the MK-571 in a concentration of 10 μM was added thereto to suspend the cells, and the resultant was further incubated at 37° C. for 30 minutes.
The analysis was performed in the same manner as in Example 79 except that the MK-571 was not added. […] The degree of the enhancement of the peak intensity caused by adding the MK-571 was evaluated by calculating the resolution R described above by using peak intensities in histograms prepared with and without adding the MK-571.
Thereafter, the tube was centrifuged at 180 G for 10 minutes to remove the supernatant, and then, 1 mL of a HBSS buffer containing the DIDS in a concentration of 10 μM was added thereto to suspend the cells, and the resultant was further incubated at 37° C. for 30 minutes.

[5] = R=|FM1−FM2|/(WM1+WM2), compound 1 μM
[6] = fluorescence intensity at peak top of histogram, compound 1 μM, 37° C., 30 minutes

Structure (SMILES): CC1(C)C(/C=C/C=C/C=C/C=C2\N(CCCCS(=O)(=O)[O-])c3ccc4ccccc4c3C2(C)C)=[N+](CCCCS(=O)(=O)[O-])c2ccc3ccccc3c21.[Na+] [compound (86)]
- Resolution ratio R ([1]; M1 vs M2 macrophages from mouse bone marrow cells, general formula (6) dyes (Table 7)): 0.602
- Evaluation of macrophage subtype identification ([1]; class based on resolution R, general formula (6) dyes (Table 7)): A (The compound is very good in the subtype identification (namely, the resolution R is 0.5 or more))
- Peak position of M1 macrophage ([1]; mouse bone marrow-derived M1 macrophages, channel listed per compound, general formula (6) dyes (Table 7)): 2.27
- Peak position of M2 macrophage ([1]; mouse bone marrow-derived M2 macrophages, channel listed per compound, general formula (6) dyes (Table 7)): 6.37
- sorting of identified M1 and M2 macrophages [2]: could be each sorted with an FACS apparatus
- subtype more strongly stained [2]: stain the M2 macrophages more strongly than the M1 macrophages

Structure (SMILES): CCN(CC)c1ccc2cc(-c3nc4cc(Cl)ccc4o3)c(=O)oc2c1 [compound (120)]
- subtype more strongly stained [3]: the M1 macrophages were stained more strongly by the compound (120) than the M2 macrophages
- Resolution ratio R ([1]; M1 vs M2 macrophages from mouse bone marrow cells, general formula (10) dyes (Table 8)): 0.676
- Evaluation of macrophage subtype identification ([1]; class based on resolution R, general formula (10) dyes (Table 8)): A (The compound is very good in the subtype identification (namely, the resolution R is 0.5 or more))
- Peak position of M1 macrophage ([1]; mouse bone marrow-derived M1 macrophages, channel listed per compound, general formula (10) dyes (Table 8)): 10.1
- Peak position of M2 macrophage ([1]; mouse bone marrow-derived M2 macrophages, channel listed per compound, general formula (10) dyes (Table 8)): 5.60
- subtype more strongly stained [1]: more strongly stain the M1 macrophages than the M2 macrophages
- sorting of identified M1 and M2 macrophages [2]: could be each sorted with an FACS apparatus
- subtype more strongly stained [2]: stain the M1 macrophages more strongly than the M2 macrophages

Structure (SMILES): COc1ccc2c3c([nH]c2c1)[C@H](C=C(C)C)N1C(=O)[C@@H]2CCCN2C(=O)[C@@H]1C3 [FTC, Fumitremorgin C]
- enhancement of the fluorescence intensity caused by inhibition of export of the compound (1) ([4]; FTC 10 μM, compound (1) 1 μM): observed merely in the M2 macrophages

Structure (SMILES): CN(C)C(=O)CCSC(SCCC(=O)O)c1cccc(/C=C/c2ccc3ccc(Cl)cc3n2)c1 (stereo not drawn) [MK-571]
- degree of the enhancement of the peak intensity (resolution R with and without MK-571) ([4]; M1 macrophages, MK-571 10 μM, compound (113) 1 μM): 0.406
- degree of the enhancement of the peak intensity (resolution R with and without MK-571) ([4]; M1 macrophages, MK-571 10 μM, compound (120) 1 μM): 0.739
- degree of the enhancement of the peak intensity (resolution R with and without MK-571) ([4]; M2 macrophages, MK-571 10 μM, compound (113) 1 μM): 0.438
- degree of the enhancement of the peak intensity (resolution R with and without MK-571) ([4]; M2 macrophages, MK-571 10 μM, compound (120) 1 μM): 0.730
- enhancement of the fluorescence intensity caused by inhibition of export of the compound (113) ([4]; MK-571 10 μM, compound (113) 1 μM): observed in both the M1 macrophages and the M2 macrophages
- enhancement of the fluorescence intensity caused by inhibition of export of the compound (120) ([4]; MK-571 10 μM, compound (120) 1 μM): observed in both the M1 macrophages and the M2 macrophages

Structure (SMILES): CCC1=C(C)C2=C(C)c3c(C)c(CC)c(C)n3[B-](F)(F)[N+]2=C1C [compound (139)]
- subtype more strongly stained [3]: the M1 macrophages were stained more strongly by the compound (139) than the M2 macrophages
- Resolution ratio R ([1]; M1 vs M2 macrophages from mouse bone marrow cells, general formula (11) dyes (Table 9)): 1.023
- Evaluation of macrophage subtype identification ([1]; class based on resolution R, general formula (11) dyes (Table 9)): A (The compound is very good in the subtype identification (namely, the resolution R is 0.5 or more))
- Peak position of M1 macrophage ([1]; mouse bone marrow-derived M1 macrophages, channel listed per compound, general formula (11) dyes (Table 9)): 220
- Peak position of M2 macrophage ([1]; mouse bone marrow-derived M2 macrophages, channel listed per compound, general formula (11) dyes (Table 9)): 47.8
- subtype more strongly stained [1]: the M1 macrophages show higher fluorescence intensity in the FITC channel than the M2 macrophages
- sorting of identified M1 and M2 macrophages [2]: could be each sorted with an FACS apparatus
- subtype more strongly stained [2]: staining the M1 macrophages more strongly than the M2 macrophages

Structure (SMILES): O=C(O)CCN1C(=O)/C(=C\c2ccc3c(c2)C2CCCC2N3Cc2ccccc2)SC1=S (stereo not drawn) [compound (3)]
- Resolution ratio R [3]: 0.257
- Evaluation of macrophage subtype identification [3]: B (the compound is good in the subtype identification (namely, the resolution R is 0.15 or more and less than 0.5))
- Peak position of M1 macrophage [3]: 9.63
- Peak position of M2 macrophage [3]: 12.3
- Selectivity [3]: M2
- Resolution ratio R [1, 5]: 0.622
- Peak position of M1 macrophage [1, 6]: 11.2
- Peak position of M2 macrophage [1, 6]: 25.0
- Evaluation of macrophage subtype identification ([1]; rated from resolution R): A (The compound is very good in the subtype identification (namely, the resolution R is 0.5 or more))

Structure (SMILES): CCN1c2ccc(/C=C3/SC(=S)N(CCC(=O)O)C3=O)cc2C2CCCC21 (stereo not drawn) [(15)]
- Resolution ratio R [3]: 0.216
- Evaluation of macrophage subtype identification [3]: B (the compound is good in the subtype identification (namely, the resolution R is 0.15 or more and less than 0.5))
- Peak position of M1 macrophage [3]: 5.62
- Peak position of M2 macrophage [3]: 7.4
- Selectivity [3]: M2
- Resolution ratio R [1, 5]: 0.700
- Peak position of M1 macrophage [1, 6]: 7.52
- Peak position of M2 macrophage [1, 6]: 10.5
- Evaluation of macrophage subtype identification ([1]; rated from resolution R): A (The compound is very good in the subtype identification (namely, the resolution R is 0.5 or more))

Structure (SMILES): O=S(=O)(O)c1cc(N=C=S)ccc1C=Cc1ccc(N=C=S)cc1S(=O)(=O)O [DIDS, 4,4′-diisothiocyanatostilbene-2,2′-disulfonic acid]
- enhancement of the fluorescence intensity caused by inhibition of export of the compound (139) ([4]; DIDS 10 μM, compound (139) 1 μM): observed merely in the M1 macrophages
